# Measured values reported in patent US10806694B2, “Nanoparticles for photodynamic therapy, X-ray induced photodynamic therapy, radiotherapy, radiodynamic therapy, chemotherapy, immunotherapy, and any combination thereof” (The University of Chicago, priority 2014, dated 2020).
# Columns and labels:
# [1] = Fluorescence lifetime by Time-Correlated Single Photon Counting; fluorescence intensity; format: physicochemical
# Description: The fluorescence spectra of H2DBP ligand and DBP-UiO NMOF were taken on a spectrofluorophotometer (RF-5301PC, Shimadzu Corporation, Kyoto, Japan).
# Time-domain lifetimes were measured on a ChronosBH lifetime fluorimeter (ISS, Inc., Champaign, Ill., United States of America) using Time-Correlated Single Photon Counting (TCSPC) methods. The fluorimeter contained Becker-Hickl SPC-130 detection electronics and an HPM-100-40 Hybrid PMT detector. Tunable picosecond pulsed excitation was provided by a Fianium SC400-2 supercontiuum laser source with integrated pulse picker and AOTF. Emission wavelengths were selected with bandpass filters (Semrock and Chroma). The Instrument Response Function (IRF) was measured to be approximately 120 ps FWHM in a 1% scattering solution of Ludox LS colloidal silica. Lifetimes were fit via a forward convolution method in the Vinci control and analysis software.
# Fluorescence spectra of suspensions of Hf-MOF (0.04 mM of L ligand) in water, DMF, and THF were taken with an excitation wavelength of 368.8 nm. […] Fluorescence lifetimes of Hf-MOF, Zr-MOF, and H2L suspensions in water were also examined.
# HT29 cells = conditions: 8.5 μM dose, 100 J/cm^2 light dose; cited from earlier work
Compound,excited state lifetime ([1]; DMF solution or suspension) [ns],weighted fluorescence lifetime ([1]; suspensions in water) [ns],PDT efficacy (HT29 cells)
"O=C(O)c1ccc(-c2c3ccccc3c(-c3ccc(C(=O)O)cc3)c3ccccc23)cc1 [H2L, 9,10-anthacenyl bis(benzoic acid)]",5.34,2.0,
PHOTOFRIN®,,,modest PDT efficacy
